Laboratory results published in ChEMBL document CHEMBL1201862, “PubChem BioAssay data set” (2004).
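Results reflect a 48-hour exposure of cells in 96-well plates to compound at five concentrations. GI50 is the concentration that inhibits growth by half.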 Activity calls are given as the source filed them. Rule as the data show it: active = GI50 up to about 1.1 µM and inactive = higher.

Tests used:
Assay in all cases: NCI anticancer screen, dose series, 48 h
M19-MEL = test system: M19-MEL
SNB-78 = test system: SNB-78
KM-20L2 = test system: KM-20L2
DMS-273 = test system: DMS-273
RXF 631 = test system: RXF 631
XF498 = test system: XF498
DMS-114 = test system: DMS-114
HOP-18 = test system: HOP-18
DLD-1 = test system: DLD-1

| SMILES | GI50 (M19-MEL) | GI50 (SNB-78) | GI50 (KM-20L2) | GI50 (DMS-273) | GI50 (RXF 631) | GI50 (XF498) | GI50 (DMS-114) | GI50 (HOP-18) | GI50 (DLD-1) |
| --- | --- | --- | --- | --- | --- | --- | --- | --- | --- |
| CCC(/C(=N/NC(=O)C[N+](C)(C)C)c1ccccc1)C1OC(=O)c2ccccc21 (stereo not given) | > 100 µM (inactive) | > 100 µM (inactive) | > 100 µM (inactive) | > 100 µM (inactive) | > 100 µM (inactive) | > 100 µM (inactive) | > 100 µM (inactive) |  |  |
| FC(F)(F)c1nc(-c2ccccc2Cl)[nH]c1C(F)(F)F | 0.697 µM (active) | 1.06 µM (active) | 0.619 µM (active) | 0.873 µM (active) |  | 0.621 µM (active) | 0.673 µM (active) | 0.364 µM (active) | 1.13 µM (inactive) |
| Cc1c(C(=O)/C=C/c2ccc(Cl)cc2)[n+]([O-])c2ccccc2[n+]1[O-] | 15.2 µM (inactive) | 22.1 µM (inactive) | 7.11 µM (inactive) | 7.64 µM (inactive) | 34.5 µM (inactive) |  | 4.1 µM (inactive) | 20.6 µM (inactive) | 7.94 µM (inactive) |
| O=c1[nH]cc(COCCCO)c(=O)[nH]1 | > 100 µM (inactive) | > 100 µM (inactive) | > 100 µM (inactive) | > 100 µM (inactive) |  | > 100 µM (inactive) |  | > 100 µM (inactive) | > 100 µM (inactive) |
| O=C(Nc1nnc(S)[nH]1)C(=O)C(c1cnc2ccc([N+](=O)[O-])cc2n1)[N+](=O)[O-] (stereo not given) | > 100 µM (inactive) | > 100 µM (inactive) | 81.3 µM (inactive) |  | > 100 µM (inactive) | > 100 µM (inactive) | 47 µM (inactive) | > 100 µM (inactive) | > 100 µM (inactive) |
| COC(=O)c1nc(N)nc(O)c1-c1ccc(Cl)cc1 | > 100 µM (inactive) | > 100 µM (inactive) | > 100 µM (inactive) | > 100 µM (inactive) | > 100 µM (inactive) | > 100 µM (inactive) | > 100 µM (inactive) |  | > 100 µM (inactive) |
| COc1ccc(OCC(=O)O)c2c1CCC(C(C)C)C2=O (stereo not given) | > 100 µM (inactive) | > 100 µM (inactive) | > 100 µM (inactive) | > 100 µM (inactive) | > 100 µM (inactive) |  | > 100 µM (inactive) | > 100 µM (inactive) | > 100 µM (inactive) |
| O=c1c2cc(Cl)ccc2n2nnc3ccc(NCCNCCO)c1c32 | 1.55 µM (inactive) | 2.35 µM (inactive) | 0.962 µM (active) | 0.641 µM (active) | 1.07 µM (active) |  | 1.49 µM (inactive) |  | 1.2 µM (inactive) |
| O=C(O)CCCCCOc1cccnc1/C=N/NC1=NCCN1 | > 100 µM (inactive) | > 100 µM (inactive) | > 100 µM (inactive) | > 100 µM (inactive) |  | 91 µM (inactive) |  | > 100 µM (inactive) | > 100 µM (inactive) |
| N#C/C(c1nc2ccccc2[nH]1)=c1\s/c(=C/c2ccc(Cl)cc2)c(=O)n1-c1ccccc1 | > 100 µM (inactive) |  | > 100 µM (inactive) | > 100 µM (inactive) |  | > 100 µM (inactive) | > 100 µM (inactive) | > 100 µM (inactive) | > 100 µM (inactive) |
| O=C(O)CSc1nnc(-c2ccc(O)cc2)[nH]1 | > 100 µM (inactive) | > 100 µM (inactive) | > 100 µM (inactive) | > 100 µM (inactive) | > 100 µM (inactive) | > 100 µM (inactive) | > 100 µM (inactive) | > 100 µM (inactive) | > 100 µM (inactive) |
| CC1(C)Cc2nnsc2C2=C1C(=O)CCS2 |  |  | > 100 µM (inactive) | > 100 µM (inactive) |  |  | > 100 µM (inactive) | > 100 µM (inactive) | > 100 µM (inactive) |
| O=C(CSc1nnc(-c2ccc(/N=C\c3ccc(Cl)cc3)cc2)o1)Nc1ccccc1[N+](=O)[O-] | > 100 µM (inactive) | > 100 µM (inactive) | > 100 µM (inactive) | > 100 µM (inactive) |  | > 100 µM (inactive) | > 100 µM (inactive) | > 100 µM (inactive) |  |
| CC1CC2C(=O)N(c3ccccc3)C(=O)C2c2c1c1ccccc1n2Cc1ccccc1 (stereo not given) | > 100 µM (inactive) |  |  |  |  |  | 31 µM (inactive) |  | 12.5 µM (inactive) |
| CC(=O)OCC1OC(OC2CC3C(C)(C)C(OC(C)=O)CC[C@]3(C)C3CCC45CC4(CC[C@H]5C(C)CC(O)[C@@H](O)C(C)(C)O)[C@]23C)C(O)C(O)C1O (stereo not given in full) | 7.55 µM (inactive) |  | 8.05 µM (inactive) | 7.62 µM (inactive) |  | 19.8 µM (inactive) |  | 8.61 µM (inactive) | 7.41 µM (inactive) |
| CCOC(=O)CC[C@H](NC(=O)c1nc[nH]c1[N+](=O)[O-])C(=O)OCC |  | > 100 µM (inactive) | > 100 µM (inactive) | > 100 µM (inactive) |  |  | > 100 µM (inactive) | > 100 µM (inactive) | > 100 µM (inactive) |
| NNC(=O)CCC(=O)NC1C2CC3CC(C2)CC1C3 (stereo not given) | > 100 µM (inactive) | > 100 µM (inactive) | > 100 µM (inactive) | > 100 µM (inactive) |  |  | > 100 µM (inactive) |  | > 100 µM (inactive) |
| Cc1nn2c3c(nnc2c1C#N)C(=O)NN=C(N)S3 | > 100 µM (inactive) |  | > 100 µM (inactive) |  |  |  |  | > 100 µM (inactive) | > 100 µM (inactive) |
| O=C1c2ccccc2C(=O)C1C(c1ccc([N+](=O)[O-])cc1)C1C(=O)c2ccccc2C1=O |  | 33.4 µM (inactive) | > 100 µM (inactive) | 99.1 µM (inactive) | 12.1 µM (inactive) | 55.2 µM (inactive) | > 10 µM (inactive) | > 100 µM (inactive) | 34.8 µM (inactive) |
| O=[N+]([O-])c1ccc(N2C[N+](c3ccccc3)=NC(c3ccccc3)=N2)cc1 | 75.3 µM (inactive) | > 100 µM (inactive) | 31.9 µM (inactive) | 45.1 µM (inactive) |  | 21.4 µM (inactive) | 22.5 µM (inactive) | 21.1 µM (inactive) | 32.2 µM (inactive) |
| Cc1nc2ccccc2c(=O)[nH]1 | > 100 µM (inactive) | > 100 µM (inactive) | > 100 µM (inactive) |  | > 100 µM (inactive) | > 100 µM (inactive) |  | > 100 µM (inactive) | > 100 µM (inactive) |
| C1=C(c2ccccc2)CN(c2ccccc2)OC1 | 47.5 µM (inactive) | > 100 µM (inactive) | 63.5 µM (inactive) | > 100 µM (inactive) |  | > 100 µM (inactive) |  | 2.71 µM (inactive) | 78.5 µM (inactive) |
| c1ccc2c3c([nH]c2c1)C1(CCCCC1)c1c([nH]c2ccccc12)C31CCCCC1 | 46 µM (inactive) | 18.8 µM (inactive) | 36.1 µM (inactive) | 22.3 µM (inactive) |  | > 100 µM (inactive) | 31.3 µM (inactive) | 20.6 µM (inactive) | 96.2 µM (inactive) |
| COc1ccc(OC(=O)N2C/C(=C\c3ccccc3)C(=O)/C(=C/c3ccccc3)C2)cc1 | 1.38 µM (inactive) | 3.43 µM (inactive) | 5.42 µM (inactive) | 2.09 µM (inactive) |  |  |  | 16.8 µM (inactive) | 1.71 µM (inactive) |
